For twelve compounds, GI50 and TGI results are on record in PubChem BioAssay (NCI).

Test in all cases: NCI anticancer screen, dose series, 48 h
The subject of test [1] is A549 NSCLC.
Test [2] has as its system ACHN renal.
The test system of test [3] is DU-145 prostate.
Test [4] has as its system HOP-92 NSCLC.
Test [5] relates to MOLT-4 leukemia.
Test [6] deals with NCI-H226 lung.
Test [7] concerns NCI-H522 lung.

Several values for one entry are separate records, joined by “and”; a condition that tells them apart may be missing. Equal entries are not always repeated.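 1) Cells in 96-well plates. 2) Compound, 48 h, 5 concentrations. 3) Linear interpolation between surrounding doses. 4) Unreached endpoint = highest concentration. GI50 marks 50% less growth. The concentration for full growth arrest is given as TGI.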 Some results are limits rather than exact numbers.

As to `COc1ccc2c(c1)NC1=C(C(=O)OC1)C2c1cc(OC)c(OC)c(OC)c1` (stereo not drawn), the GI50 was less than 0.01 µM in test [1]; less than 0.01 µM in test [2]; less than 0.01 µM in test [3]; less than 0.0112 µM in test [4]; less than 0.01 µM in test [5]; less than 0.01 µM in test [6]. In test [7], the GI50 is less than 0.01 µM. The TGI in test [1] is greater than 100 µM; in test [2] it was greater than 100 µM; in test [3] it was less than 0.01 µM; in test [4], greater than 100 µM; in test [5] it was greater than 100 µM; in test [6], greater than 100 µM. The compound also returned a TGI in test [7] of less than 0.01 µM.

Regarding `CCOc1cc(C(C)(C)C)ccc1C1=N[C@H](c2ccc(Cl)cc2)[C@H](c2ccc(Cl)cc2)N1C(=O)N1CCN(CC#Cc2cccc3c2CN([C@@H]2CCC(=O)NC2=O)C3=O)CC1`, the GI50 was 1.1 µM in test [1]; 1.24 µM in test [2]; 4.87 µM in test [3]; 0.0372 µM in test [4]; 0.019 µM in test [5]; 0.112 µM in test [6]. Besides, the GI50 in test [7] was 6.59 µM. Further, the TGI in test [1] is greater than 43.1 µM; in test [2] it was 12.4 µM; in test [3], greater than 100 µM; in test [4] it was 8.51 µM; in test [5] it was greater than 100 µM; in test [6], 4.33 µM. The TGI in test [7] is greater than 77.3 µM.

On to `Cn1c(Cl)c(/C=C2/C(=O)Nc3ccccc32)c2ccccc21`, for which the GI50 in test [1] was 6.58 µM; in test [2], 1.15 µM; in test [3], 1.4 µM; in test [4] it was 13.4 µM; in test [5] it was 0.139 µM; in test [6], 1.83 µM. Besides, the GI50 in test [7] was 2.39 µM. Further, the TGI was greater than 63 µM in test [1]; 18.8 µM in test [2]; 15.8 µM in test [3]; greater than 100 µM in test [4]; 21.9 µM in test [6]; 22.4 µM in test [7].

On to `O=C1C(=O)c2ccccc2C(O)=C1C(C1=C(O)c2ccccc2C(=O)C1=O)c1ccc(Cl)cc1`, for which the TGI in test [1] was determined as 42.2 µM; in test [2] it was 17 µM; in test [3] it was 10.3 µM; in test [4] it was 44.1 µM; in test [5] it was 19.3 µM; in test [6], 52.9 µM. The TGI in test [7] is 27.3 µM.

Consider `O=C(O)CSCCc1ccccc1`, for which the TGI in test [1], in test [2], in test [3], in test [4], in test [5] and in test [6] was greater than 100 µM throughout. For the same compound, the TGI in test [7] was greater than 100 µM.

`COc1ccc(C(C#N)NC23CC4CC(CC(C4)C2)C3)cc1` (stereo not drawn): the TGI in test [1], in test [2], in test [3], in test [4], in test [5] and in test [6] was greater than 100 µM throughout. This compound also came in with a TGI in test [7] greater than 100 µM.

Take `CC(C)(C)c1cc([N+](=O)[O-])cc([N+](=O)[O-])c1O`: the TGI in test [1], in test [2], in test [3], in test [4], in test [5] and in test [6] was greater than 10 µM in each case. Further, the TGI in test [7] was greater than 10 µM.

On to `CCN(CC)CCCC(CCl)Nc1ccnc2cc(Cl)ccc12` (stereo not drawn), for which the GI50 in test [1] was 20 µM and 27 µM; in test [2], 36 µM and 6.74 µM; in test [3], 49.6 µM and 47.1 µM; in test [4] it was 11.2 µM and 14.5 µM; in test [6] it was 34.7 µM and 3.99 µM; in test [7], 25.7 µM and 25.1 µM. Further, the TGI in test [1] is 55 µM and > 100 µM; in test [2], greater than 100 µM; in test [3] it was greater than 100 µM; in test [4], 36.6 µM and 42.1 µM; in test [5] it was 81.1 µM and > 34.3 µM; in test [6] it was 85.2 µM and > 39.1 µM. Moreover, the TGI in test [7] is 67.8 µM and > 73.6 µM.

Regarding `COc1ccc2c(c1)C(=O)/C(=C/c1cccc(OCC(=O)c3ccccc3)c1)O2`, the GI50 in test [1] was 4.93 µM; in test [2] it was 1.79 µM; in test [3] it was 3.9 µM; in test [4] it was 3.86 µM; in test [5], 1.44 µM; in test [6], 15.9 µM. Also, in test [7], the GI50 is 1.62 µM. The TGI in test [1] stood at 24.9 µM; in test [2] it was 3.38 µM; in test [3] it was 13.7 µM; in test [4] it was 16.1 µM; in test [5] it was 3.52 µM; in test [6], 43.5 µM. The same compound showed a TGI in test [7] of 3.26 µM.

Turning to `CC/C=C\C[C@H]1CC=C2C(=O)C=C[C@@H]2CC=CCCCC(=O)O[C@@H](CCCCC)CC=C2C(=O)C=C[C@@H]2CC=CCCCC(=O)O[C@@H](CCCCC)CC=C2C(=O)C=C[C@@H]2CC=CCCCC(=O)O[C@@H](CCCCC)CC=C2C(=O)C=C[C@@H]2CC=CCCCC(=O)O1`, the GI50 is 3.59 µM in test [1]; 2.62 µM in test [2]; 2.68 µM in test [3]; 1.53 µM in test [4]; 2.39 µM in test [5]; 2.48 µM in test [6]. Further, the GI50 in test [7] is 1.76 µM. Further, the TGI in test [1] was greater than 7.9 µM; in test [2], greater than 7.9 µM; in test [3] it was greater than 7.9 µM; in test [4] it was 4.32 µM; in test [5], greater than 7.9 µM; in test [6] it was greater than 7.9 µM. For the same compound, the TGI in test [7] turned out to be 4.48 µM.

Consider `O=C(O)c1ccc(CN2CCC(CN[C@@H]3C[C@H]3c3ccccc3)CC2)cc1`, for which the GI50 in test [1], in test [2], in test [3], in test [4], in test [5] and in test [6] was greater than 100 µM each time. For the same compound, the GI50 in test [7] was greater than 100 µM. Also, the TGI in test [1], in test [2], in test [3], in test [4], in test [5] and in test [6] was greater than 100 µM in each case. This compound also came in with a TGI in test [7] greater than 100 µM.

Take `O=C1NC(=S)S/C1=C/c1ccc2c(c1)OCO2`: the GI50 in test [1] is greater than 100 µM; in test [2] it was greater than 100 µM; in test [3], greater than 100 µM; in test [4], 17.6 µM; in test [5] it was greater than 100 µM; in test [6], greater than 100 µM. In addition, in test [7], the GI50 was greater than 100 µM. Also, the TGI in test [1] is greater than 100 µM; in test [2] it was greater than 100 µM; in test [3], greater than 100 µM; in test [4] it was 87.7 µM; in test [5] it was greater than 100 µM; in test [6], greater than 100 µM. Moreover, the TGI in test [7] is greater than 100 µM.
